From patent US6875768B1, “Phthalamide derivatives, intermediates in the production thereof, and agricultural/horticultural insecticides and method for using the same” (Nihon Nohyako Co., Ltd., priority 1999, dated 2005) come the findings set out here.

Data set [1] relates to Common cutworm (Spodoptera litura). Type of data set: in vivo. The following applies: 500 ppm; cabbage leaf immersed about 30 seconds; second-instar larvae; eight days after the inoculation; 25° C. From the text: Insecticidal Effect on Common cutworm (Spodoptera litura)
In data set [2] the test system is diamond back moth (Plutella xylostella). Type of data set: in vivo. The following applies: 1,000 ppm; Chinese cabbage seedling with eggs immersed about 30 seconds; counted six days after the immersion; 25° C. From the text:
Insecticidal effect on diamond back moth (Plutella xylostella)
Adult diamond back moths were released and allowed to oviposit on a Chinese cabbage seedling. […] Six days after the immersion, the hatched insects were counted. […] [formula] Criterion • A - - - Mortality 100% • B - - - Mortality 99-90% • C - - - Mortality 89-80% • D - - - Mortality 79-50%

On to `C[S+]([O-])CC(C)(C)NC(=O)c1c(I)cccc1C(=O)Nc1ccc(C(F)(C(F)(F)F)C(F)(F)F)nc1Cl` (centres unmarked) [Q27-235], for which the “insecticidal effect (activity ranking by mortality)” value (from here on “insecticidal effect”) in data set [1] and in data set [2] was “B or higher” in each case.

In the case of `CC(C)(CS(C)(=O)=O)NC(=O)c1c(I)cccc1C(=O)Nc1ccc(C(F)(C(F)(F)F)C(F)(F)F)nc1Cl` [Q27-236], the “insecticidal effect” value in data set [1] and in data set [2] was “B or higher” in each case.

In the case of `C[S+]([O-])CC(C)(C)NC(=O)c1c(I)cccc1C(=O)Nc1cccnc1C(F)(C(F)(F)F)C(F)(F)F` (centres unmarked) [Q27-238], the “insecticidal effect” value in data set [1] and in data set [2] was “B or higher” in each case.

In the case of `CC(C)(CS(C)(=O)=O)NC(=O)c1c(I)cccc1C(=O)Nc1cccnc1C(F)(C(F)(F)F)C(F)(F)F` [Q27-239], the “insecticidal effect” value in data set [1] and in data set [2] was “B or higher” throughout.

Turning to `CSCC(C)(C)NC(=O)c1c(I)cccc1C(=O)Nc1c(Cl)cc(C(F)(C(F)(F)F)C(F)(F)F)nc1Cl` [Q27-240], the “insecticidal effect” value in data set [1] and in data set [2] was “B or higher” in each case.

Take `COc1nc(C(F)(C(F)(F)F)C(F)(F)F)ccc1NC(=O)c1cccc(I)c1C(=O)NC(C)CSC` (centres unmarked) [Q27-241]: the “insecticidal effect” value in data set [1] and in data set [2] was “B or higher” in each case.

For the compound `COc1nc(C(F)(C(F)(F)F)C(F)(F)F)ccc1NC(=O)c1cccc(I)c1C(=O)NC(C)C` [Q27-242], the “insecticidal effect” value in data set [1] and in data set [2] was “B or higher” in each case.

In the case of `CSCC(C)(C)NC(=O)c1c(I)cccc1C(=O)Nc1ccc(C(F)(C(F)(F)F)C(F)(F)F)nc1C` [Q27-243], the “insecticidal effect” value in data set [1] and in data set [2] was “B or higher” each time.

Take `CSCC(C)(C)NC(=O)c1c(I)cccc1C(=O)Nc1ccc(C(F)(C(F)(F)F)C(F)(F)F)nc1SC` [Q27-245]: the “insecticidal effect” value in data set [1] and in data set [2] was “B or higher” each time.

On to `CSc1nc(C(F)(C(F)(F)F)C(F)(F)F)ccc1NC(=O)c1cccc(I)c1C(=O)NC(C)C` [Q27-246], for which the “insecticidal effect” value in data set [1] and in data set [2] was “B or higher” throughout.

In the case of `CC(C)NC(=O)c1c(I)cccc1C(=O)Nc1ccc(C(F)(C(F)(F)F)C(F)(F)F)nc1[S+](C)[O-]` (centres unmarked) [Q27-247], the “insecticidal effect” value in data set [1] and in data set [2] was “B or higher” in each case.

As to `CC(C)(CS(C)(=O)=O)NC(=O)c1c(I)cccc1C(=O)Nc1ccc(OC(C(F)(F)F)C(F)(F)F)nc1Cl` [Q27-267], the “insecticidal effect” value in data set [1] and in data set [2] was “B or higher” each time.

As to `COc1nc(OC(C(F)(F)F)C(F)(F)F)ccc1NC(=O)c1cccc(I)c1C(=O)NC(C)(C)CSC` [Q27-268], the “insecticidal effect” value in data set [1] and in data set [2] was “B or higher” throughout.

In the case of `Cc1nc(OC(C(F)(F)F)C(F)(F)F)ccc1NC(=O)c1ccccc1C(=O)NC(C)(C)C[S+](C)[O-]` (centres unmarked) [Q27-289], the “insecticidal effect” value in data set [1] and in data set [2] was “B or higher” throughout.

Turning to `Cc1nc(OC(C(F)(F)F)C(F)(F)F)ccc1NC(=O)c1cccc(Cl)c1C(=O)NC(C)C` [Q27-297], the “insecticidal effect” value in data set [1] and in data set [2] was “B or higher” in each case.

Consider `Cc1nc(OC(C(F)(F)F)C(F)(F)F)ccc1NC(=O)c1cccc(Cl)c1C(=O)NC(C)(C)C` [Q27-298], for which the “insecticidal effect” value in data set [1] and in data set [2] was “B or higher” in each case.

As to `Cc1nc(OC(C(F)(F)F)C(F)(F)F)ccc1NC(=O)c1ccc(Cl)c(Cl)c1C(=O)NC(C)C` [Q27-332], the “insecticidal effect” value in data set [1] and in data set [2] was “B or higher” throughout.

For `CSCC(C)NC(=O)c1c(C(=O)Nc2ccc(OC(C(F)(F)F)C(F)(F)F)nc2C)ccc(Cl)c1Cl` (centres unmarked) [Q27-334], the “insecticidal effect” value in data set [1] and in data set [2] was “B or higher” each time.

On to `Cc1nc(OC(C(F)(F)F)C(F)(F)F)ccc1NC(=O)c1ccc(Cl)c(Cl)c1C(=O)NC(C)C[S+](C)[O-]` (centres unmarked) [Q27-335], for which the “insecticidal effect” value in data set [1] and in data set [2] was “B or higher” in each case.

As for `Cc1nc(OC(C(F)(F)F)C(F)(F)F)ccc1NC(=O)c1cccc([N+](=O)[O-])c1C(=O)NC(C)C` [Q27-347], the “insecticidal effect” value in data set [1] and in data set [2] was “B or higher” throughout.

For the compound `CSCC(C)(C)NC(=O)c1c(C(=O)Nc2ccc(OC(C(F)(F)F)C(F)(F)F)nc2C)cccc1[N+](=O)[O-]` [Q27-352], the “insecticidal effect” value in data set [1] and in data set [2] was “B or higher” each time.

As to `Cc1nc(OC(C(F)(F)F)C(F)(F)F)ccc1NC(=O)c1cccc([N+](=O)[O-])c1C(=O)NC(C)(C)CS(C)(=O)=O` [Q27-353], the “insecticidal effect” value in data set [1] and in data set [2] was “B or higher” in each case.

For `Cc1nc(OC(C(F)(F)F)C(F)(F)F)ccc1NC(=O)c1cccc(C(F)(F)F)c1C(=O)NC(C)C` [Q27-354], the “insecticidal effect” value in data set [1] and in data set [2] was “B or higher” each time.

Turning to `Cc1nc(OC(C(F)(F)F)C(F)(F)F)ccc1NC(=O)c1cccc(C(F)(F)F)c1C(=O)NC(C)(C)C` [Q27-355], the “insecticidal effect” value in data set [1] and in data set [2] was “B or higher” throughout.

Consider `CSCC(C)(C)NC(=O)c1c(C(=O)Nc2ccc(OC(C(F)(F)F)C(F)(F)F)nc2C)cccc1C(F)(F)F` [Q27-359], for which the “insecticidal effect” value in data set [1] and in data set [2] was “B or higher” in each case.

`Cc1nc(OC(C(F)(F)F)C(F)(F)F)ccc1NC(=O)c1cccc(C(F)(F)F)c1C(=O)NC(C)(C)C[S+](C)[O-]` (centres unmarked) [Q27-360]: the “insecticidal effect” value in data set [1] and in data set [2] was “B or higher” in each case.

For `Cc1nc(OC(F)(F)C(F)F)ccc1NC(=O)c1cccc(I)c1C(=O)NC(C)C` [Q27-378], the “insecticidal effect” value in data set [1] and in data set [2] was “B or higher” throughout.

In the case of `CSCC(C)(C)NC(=O)c1c(I)cccc1C(=O)Nc1ccc(OC(F)(F)C(F)F)nc1C` [Q27-384], the “insecticidal effect” value in data set [1] and in data set [2] was “B or higher” throughout.

As to `CC(C)NC(=O)c1c(I)cccc1C(=O)Nc1ccc(OC(F)(F)C(F)F)nc1Cl` [Q27-387], the “insecticidal effect” value in data set [1] and in data set [2] was “B or higher” in each case.

Regarding `CSCC(C)(C)NC(=O)c1c(I)cccc1C(=O)Nc1ccc(OC(F)(F)C(F)F)nc1Cl` [Q27-388], the “insecticidal effect” value in data set [1] and in data set [2] was “B or higher” throughout.

As for `Cc1nc(OC(F)(F)C(F)OC(F)(F)C(F)(F)C(F)(F)F)ccc1NC(=O)c1cccc(I)c1C(=O)NC(C)C` (centres unmarked) [Q27-397], the “insecticidal effect” value in data set [1] and in data set [2] was “B or higher” throughout.

As for `CSCC(C)NC(=O)c1c(I)cccc1C(=O)Nc1ccc(OC(F)(F)C(F)OC(F)(F)C(F)(F)C(F)(F)F)nc1Cl` (centres unmarked) [Q27-407], the “insecticidal effect” value in data set [1] and in data set [2] was “B or higher” each time.

With `Cc1nc(OCC(F)(F)C(F)(F)F)ccc1NC(=O)c1cccc(I)c1C(=O)NC(C)C` [Q27-413], the “insecticidal effect” value in data set [1] and in data set [2] was “B or higher” each time.

As for `CSCC(C)NC(=O)c1c(I)cccc1C(=O)Nc1ccc(OCC(F)(F)C(F)(F)F)nc1C` (centres unmarked) [Q27-414], the “insecticidal effect” value in data set [1] and in data set [2] was “B or higher” in each case.

As to `CSCC(C)(C)NC(=O)c1c(I)cccc1C(=O)Nc1ccc(NC(=O)C(F)(F)C(F)(F)F)nc1C` [Q27-439], the “insecticidal effect” value in data set [1] and in data set [2] was “B or higher” throughout.

Turning to `CSCC(C)(C)NC(=O)c1c(I)cccc1C(=O)Nc1cnc(C(F)(C(F)(F)F)C(F)(F)F)nc1C` [Q32-19], the “insecticidal effect” value in data set [1] and in data set [2] was “B or higher” in each case.

Regarding `CCNC(=O)c1c(I)cccc1C(=O)Nc1cnc(C(F)(C(F)(F)F)C(F)(F)F)cn1` [Q34-46], the “insecticidal effect” value in data set [1] and in data set [2] was “B or higher” throughout.
